Tests used:
[1] = system: protein kinases in MDA-MB-231 breast cancer cell lysates; assay: Affinity purification of kinases from MDA-MB-231 cell lysates on inhibitor resins, bound proteins identified by LC-MS/MS; type: binding, Homo sapiens; settings: MDA-MB-231 lysate
Procedure: MDA-MB-231 cells were cultured in RPMI1640 (Invitrogen) supplemented with 10% fetal bovine serum (Invitrogen) and insulin at 0.25 IU/ml. Subconfluent cells were lysed with ice-cold lysis buffer containing 50 mM HEPES-NaOH (pH 7.5), 150 mM NaCl, 0.5% Triton X-100, 1 mM EDTA 1 mM EGTA supplemented with additives (10 μg/ml aprotinin, 10 μg/ml leupeptin, 1 mM PMSF, 10 mM NaF, 50 ng/ml calyculin A, 1% phosphatase inhibitor mixture 3 (Sigma), and 2.5 mM Na3VO4) for 5 min on ice. Cell debris was removed by centrifugation at 16,500 g at 4° C. for 30 min and the supernatant was subsequently filtered through a 0.45 μm PVDF membrane (Millipore). Protein concentrations were measured by the Bradford assay (Bio-Rad).
Kinase inhibitors Purvalanol B (Tocris) and SU6668 (Biochempartner Chemical) were immobilized to EAH-sepharose 4B (GE Healthcare) and VI16832 (Evotec) was coupled to ECH-sepharose 4B (GE Healthcare) beads via a carbodiimide-mediated reaction. Briefly, 1 ml of beads were washed 3 times with 10 ml of 0.5 M NaCl, twice with 10 ml H2O and once with coupling buffer made of 50% dimethylformamide (DMF) and 50% ethanol. The washed and aspirated beads were then mixed with 1 ml of inhibitor solution (Purvalanol B at 10 mM, SU6668 at 10 mM and VI16832 at 3 mM dissolved in coupling buffer), followed by dropwise addition of 150 μl of 1 M N-(3-dimethylaminopropyl)-N-ethylcarbodiimide hydrochloride (EDC) in coupling buffer.
The coupling reaction was carried out in the dark at room temperature overnight on a rotating wheel. To block the remaining reactive groups, the resin was washed twice with 2 ml of coupling buffer followed by addition of 1 ml of DMF/ethanol/ethanolamine at ratio 1:1:1 (pH 8). The reaction was initiated by dropwise addition of 150 μl of 1 M EDC in coupling buffer and the mixture was then incubated again in the dark at room temperature overnight with gentle agitation. Subsequently the resin was washed 3 times with 10 ml of coupling buffer, twice with 10 ml of 0.5 M NaCl and once with 10 ml of 20% ethanol. The resin was stored in 20% ethanol as a suspension at 4° C. in the dark. For CTx-0294885 immobilization, activated CH Sepharose 4B (GE Healthcare) (0.5 g) was swelled with 20 ml of 1 mM HCl and collected by vacuum filtration. The collected resin was washed 4 times with 20 ml of 1 mM HCl, and mixed with 3 ml of CTx-0294885 (9 mM) dissolved in 50% DMF 50% 100 mM sodium bicarbonate (pH 8). The suspension was agitated on a shaker table for 18 h. The mixture was washed with 5 ml of 50% aqueous DMF and the resin was resuspended in IM ethanolamine in 50% aqueous DMF. The mixture was agitated for 1 h before the resin was collected by filtration and washed 5 times with 5 ml of 50% aqueous DMF, 10 times with 10 ml of 0.1 M acetate buffer (pH 4), 10 times with 10 ml of 0.1 M bicarbonate buffer (pH 8), and 10 times of 10 ml 20% ethanol. The resin was resuspended in 10 ml of 20% ethanol and stored at 4° C. An equally suitable alternative protocol for CTx-0294885 immobilization is described in Example 2.
The salt concentration in the protein lysates was adjusted to 1 M NaCl and the kinase inhibitor resins were washed once with 10 ml of H2O and once with 10 ml of washing buffer A (lysis buffer with 1 M NaCl plus 10 mM NaF and 0.1 mM Na3VO4) prior to kinase enrichment. For testing of single kinase inhibitors, 1 ml of inhibitor resin was incubated with 50 mg of protein lysates, and for multi-inhibitor resins, a cocktail comprising 1 ml of each inhibitor resin was used for incubation with 100 mg of protein lysates. After 2 h of incubation at 4° C. in the dark on a rotating wheel, the resins were washed twice with 10 ml of washing buffer A, once with 10 ml of washing buffer B (same as washing buffer A except NaCl concentration is 150 mM instead of 1 M) and once with washing buffer C (50 mM HEPES, 10 mM NaF and 0.1 mM Na3VO4). […]

[2] = system: protein kinases from three different cell lines; settings: cited from earlier work

CNC(=O)c1ccccc1Nc1nc(Nc2ccc(N3CCNCC3)cc2)ncc1Cl [CTx-0294885, 2-((5-Chloro-2-((4-(piperazin-1-yl)phenyl)amino)pyrimidin-4-yl)amino)-N-methylbenzamide]
proteins identified ([1]; CTx-0294885 coupled to CL sepharose 4B beads, single resin): 2546 | kinases of the RGC (receptor guanylate cyclase) family identified ([1]; FIG. 2A): No kinases from the minor RGC (receptor guanylate cyclase) family were identified | major kinase subgroups with representatives identified ([1]; FIG. 2A): 9 | relative enrichment of kinase families ([1]; FIG. 2B): particularly strong enrichment for kinases of the STE, CMGC and AGC subfamilies | kinases bound that are not bound by the other reagents (P, S, V) ([1]; comparison with purvalanol B, SU6668 and VI16832 columns): 77 | enrichment of non-protein kinases ([1]; gene ontology analysis, FIG. 2C): enrichment for other purine nucleotide binding proteins | kinase identifications if phosphosites are included (kinases bound) ([1]; single resin): 240 | kinases identified among the proteins identified ([1]; single resin, phosphosites not included): 185

NCCOc1ccc(Nc2ncc3ccc(=O)n(C4CC5CCC4C5)c3n2)cc1 (stereo not drawn) [VI16832]
protein kinases detected in total [2]: 170

Reference: patent US20140323346A1, “BINDING AGENT” (Garvan Institute of Medical Research, priority 2011, published 2014)
